Holding throughout (assay type): functional
Assay [1] deals with Induced myeloid leukemia cell differentiation protein Mcl-1 (Homo sapiens, UniProt Q07820).
The target in assay [2] is T1, Short transient receptor potential channel 4 (Mus musculus, UniProt Q9QUQ5).
T1 sequence (Q9QUQ5 whole entry): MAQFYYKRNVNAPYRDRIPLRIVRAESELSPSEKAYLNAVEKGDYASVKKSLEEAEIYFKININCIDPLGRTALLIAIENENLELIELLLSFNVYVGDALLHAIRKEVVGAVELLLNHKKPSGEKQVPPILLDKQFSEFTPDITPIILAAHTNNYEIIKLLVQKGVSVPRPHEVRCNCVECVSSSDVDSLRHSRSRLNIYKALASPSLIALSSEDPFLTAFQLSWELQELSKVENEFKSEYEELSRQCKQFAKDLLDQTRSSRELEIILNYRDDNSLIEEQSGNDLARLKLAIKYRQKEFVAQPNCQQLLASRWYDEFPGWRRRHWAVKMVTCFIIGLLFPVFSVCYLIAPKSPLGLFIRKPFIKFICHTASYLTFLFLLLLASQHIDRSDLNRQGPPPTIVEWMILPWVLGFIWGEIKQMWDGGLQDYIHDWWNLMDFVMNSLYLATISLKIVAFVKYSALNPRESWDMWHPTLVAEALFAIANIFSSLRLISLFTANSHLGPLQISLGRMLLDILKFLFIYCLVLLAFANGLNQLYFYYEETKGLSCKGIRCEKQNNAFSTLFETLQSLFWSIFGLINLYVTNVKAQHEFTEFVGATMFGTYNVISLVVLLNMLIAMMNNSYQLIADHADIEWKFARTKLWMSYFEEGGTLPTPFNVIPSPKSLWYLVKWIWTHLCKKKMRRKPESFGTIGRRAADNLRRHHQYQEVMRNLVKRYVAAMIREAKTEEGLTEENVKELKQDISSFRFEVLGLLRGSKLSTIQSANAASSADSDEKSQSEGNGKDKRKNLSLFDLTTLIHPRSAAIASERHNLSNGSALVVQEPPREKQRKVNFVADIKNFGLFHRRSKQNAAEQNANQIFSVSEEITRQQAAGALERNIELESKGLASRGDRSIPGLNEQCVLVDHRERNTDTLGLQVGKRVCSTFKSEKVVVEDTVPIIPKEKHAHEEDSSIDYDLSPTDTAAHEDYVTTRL
Briefly: block of DAMGO-driven TRPC4 calcium entry – cell-based, HEK293 TRPC4/mu-opioid, Fluo-4 calcium, dose response (AID 434942).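 Also: potency of inhibitors blocking the TRPC4 calcium response.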

The nature of assay [3]: intracellular Trypanosoma cruzi inhibitors in host cells – cell-based, plate reader, cherry-pick samples, set 3, dose response (AID 651818).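 Also: compounds incubated with infected cells for about four days.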
Assay [4] deals with T2, Fatty acid synthase (Homo sapiens, UniProt P49327). Put plainly: inhibition of human FAS-TE enzyme activity – biochemical, endpoint fluorescence intensity, uHTS hits, dose response (AID 624327).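 Also: fluorescence from hydrolysis of an O-methyl fluorescein acyl ester substrate by the enzyme.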
T2 sequence (P49327 whole entry): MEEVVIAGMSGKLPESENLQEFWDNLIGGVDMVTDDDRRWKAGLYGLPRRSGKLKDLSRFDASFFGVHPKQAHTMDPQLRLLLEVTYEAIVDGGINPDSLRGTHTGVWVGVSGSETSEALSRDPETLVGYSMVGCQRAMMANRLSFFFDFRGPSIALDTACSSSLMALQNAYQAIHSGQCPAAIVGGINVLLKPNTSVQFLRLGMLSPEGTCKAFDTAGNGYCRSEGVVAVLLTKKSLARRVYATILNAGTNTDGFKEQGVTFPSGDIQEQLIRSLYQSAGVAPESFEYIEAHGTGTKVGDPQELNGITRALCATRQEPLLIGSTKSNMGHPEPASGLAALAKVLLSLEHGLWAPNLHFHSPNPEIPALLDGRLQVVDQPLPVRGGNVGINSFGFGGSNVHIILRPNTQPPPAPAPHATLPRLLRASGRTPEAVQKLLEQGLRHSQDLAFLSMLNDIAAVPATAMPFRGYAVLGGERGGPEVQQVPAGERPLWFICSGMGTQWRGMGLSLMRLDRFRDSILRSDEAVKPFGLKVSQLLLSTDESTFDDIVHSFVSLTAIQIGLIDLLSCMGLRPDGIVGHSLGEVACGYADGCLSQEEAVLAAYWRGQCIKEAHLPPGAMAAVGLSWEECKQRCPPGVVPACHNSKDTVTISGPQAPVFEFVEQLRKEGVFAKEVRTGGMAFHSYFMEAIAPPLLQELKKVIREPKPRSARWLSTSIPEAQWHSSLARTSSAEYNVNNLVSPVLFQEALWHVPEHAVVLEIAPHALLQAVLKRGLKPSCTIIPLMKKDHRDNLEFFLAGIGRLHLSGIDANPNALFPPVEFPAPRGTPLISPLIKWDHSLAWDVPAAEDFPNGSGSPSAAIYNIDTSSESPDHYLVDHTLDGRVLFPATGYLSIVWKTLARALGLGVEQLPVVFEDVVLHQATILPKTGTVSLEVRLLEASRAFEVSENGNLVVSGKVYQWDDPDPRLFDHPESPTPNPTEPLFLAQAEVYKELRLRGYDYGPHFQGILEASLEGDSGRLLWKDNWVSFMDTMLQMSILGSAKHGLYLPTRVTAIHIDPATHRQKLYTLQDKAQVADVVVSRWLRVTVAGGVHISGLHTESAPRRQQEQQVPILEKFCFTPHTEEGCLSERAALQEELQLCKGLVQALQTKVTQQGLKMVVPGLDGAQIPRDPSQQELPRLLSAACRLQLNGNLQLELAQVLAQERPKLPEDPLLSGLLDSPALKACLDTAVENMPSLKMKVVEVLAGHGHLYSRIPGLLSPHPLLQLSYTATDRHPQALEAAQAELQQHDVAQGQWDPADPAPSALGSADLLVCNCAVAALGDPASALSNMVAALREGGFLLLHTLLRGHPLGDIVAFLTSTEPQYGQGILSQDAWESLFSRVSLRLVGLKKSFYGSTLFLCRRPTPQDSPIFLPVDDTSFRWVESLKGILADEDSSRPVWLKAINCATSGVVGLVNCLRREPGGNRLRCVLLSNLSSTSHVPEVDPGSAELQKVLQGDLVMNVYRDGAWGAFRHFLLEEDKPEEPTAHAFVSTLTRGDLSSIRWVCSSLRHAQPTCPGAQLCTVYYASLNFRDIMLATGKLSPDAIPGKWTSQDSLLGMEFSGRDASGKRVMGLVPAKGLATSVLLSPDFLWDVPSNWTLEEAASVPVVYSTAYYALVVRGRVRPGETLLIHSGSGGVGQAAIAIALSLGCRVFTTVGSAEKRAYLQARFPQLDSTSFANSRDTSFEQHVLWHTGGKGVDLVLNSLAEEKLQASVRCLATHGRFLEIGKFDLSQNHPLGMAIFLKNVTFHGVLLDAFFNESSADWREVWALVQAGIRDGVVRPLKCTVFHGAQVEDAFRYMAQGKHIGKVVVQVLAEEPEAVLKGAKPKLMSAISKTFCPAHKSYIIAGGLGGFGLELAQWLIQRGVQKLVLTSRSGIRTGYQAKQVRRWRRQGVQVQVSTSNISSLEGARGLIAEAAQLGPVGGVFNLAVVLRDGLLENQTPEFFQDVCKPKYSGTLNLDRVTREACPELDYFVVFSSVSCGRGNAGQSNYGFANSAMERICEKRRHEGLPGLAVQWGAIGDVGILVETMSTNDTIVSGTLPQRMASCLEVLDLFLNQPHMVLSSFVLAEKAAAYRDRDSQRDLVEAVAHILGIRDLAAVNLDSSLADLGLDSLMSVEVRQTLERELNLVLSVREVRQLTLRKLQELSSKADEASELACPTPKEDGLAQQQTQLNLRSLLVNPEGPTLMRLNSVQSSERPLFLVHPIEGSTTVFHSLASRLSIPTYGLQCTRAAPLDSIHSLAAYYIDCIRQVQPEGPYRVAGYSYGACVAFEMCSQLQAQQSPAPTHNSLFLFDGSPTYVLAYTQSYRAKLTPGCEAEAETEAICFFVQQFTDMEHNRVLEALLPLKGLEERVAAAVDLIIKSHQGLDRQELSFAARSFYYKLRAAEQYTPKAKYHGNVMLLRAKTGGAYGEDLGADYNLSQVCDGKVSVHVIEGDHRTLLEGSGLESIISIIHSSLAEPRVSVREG
Assay [5] addresses T3, Corticotropin-releasing factor receptor 2/Corticotropin-releasing factor-binding protein (Homo sapiens, UniProt P24387+Q13324).
T3 sequence (Q13324 whole entry): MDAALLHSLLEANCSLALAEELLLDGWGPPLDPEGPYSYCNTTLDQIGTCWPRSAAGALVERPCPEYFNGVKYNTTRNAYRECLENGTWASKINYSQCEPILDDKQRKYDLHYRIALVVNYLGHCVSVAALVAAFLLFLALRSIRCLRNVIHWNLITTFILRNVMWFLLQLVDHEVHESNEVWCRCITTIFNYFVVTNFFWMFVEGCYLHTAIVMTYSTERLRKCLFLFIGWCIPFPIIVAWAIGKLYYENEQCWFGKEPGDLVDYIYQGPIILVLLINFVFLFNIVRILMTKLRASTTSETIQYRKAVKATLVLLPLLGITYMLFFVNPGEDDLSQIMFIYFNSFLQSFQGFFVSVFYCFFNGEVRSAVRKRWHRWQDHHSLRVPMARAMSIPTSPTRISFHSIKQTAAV
T3 sequence (P24387 whole entry): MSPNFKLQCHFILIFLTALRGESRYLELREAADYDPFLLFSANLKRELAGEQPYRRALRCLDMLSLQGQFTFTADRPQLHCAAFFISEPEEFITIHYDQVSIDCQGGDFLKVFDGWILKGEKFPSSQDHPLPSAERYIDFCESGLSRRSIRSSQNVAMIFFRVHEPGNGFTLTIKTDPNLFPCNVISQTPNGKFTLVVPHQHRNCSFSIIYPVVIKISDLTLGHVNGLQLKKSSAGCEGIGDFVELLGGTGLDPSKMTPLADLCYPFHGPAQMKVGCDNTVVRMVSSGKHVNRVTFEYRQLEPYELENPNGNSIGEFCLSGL
Briefly: Dose Response confirmation of uHTS hits for small molecule antagonists of the CRF-binding protein and CRF-R2 receptor complex. Conditions: read-out: IC50_Mean.

Assay [6] deals with T3, Corticotropin-releasing factor receptor 2/Corticotropin-releasing factor-binding protein. Briefly: activators of CRF receptor 2 with binding protein – uHTS hits, confirmation (AID 602473). The settings on record: read-out: EC50_Mean.
For assay [7], the target named is T2, Fatty acid synthase. Put plainly: inhibition of human FAS-TE enzyme activity – biochemical, kinetic fluorescence intensity, dose response (AID 624326).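 Also: rate of fluorescence rise from hydrolysis of a fluorogenic O-methyl fluorescein ester substrate.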
Assay [8] addresses Voltage-dependent T-type calcium channel subunit alpha-1H (Homo sapiens, UniProt O95180).
Assay [9] in a line: Luminescence Cell-Based Dose Response HTS to Identify Activators of Luciferase Translation or Activity in H4 […] Cells. [Related pubchem assays: 1829 (Project Summary), 1814 (Primary HTS)].
Another assay relates to H4. Briefly: Luminescence Cell-Based Dose Response HTS to Identify Activators of 5'UTR Stem-Loop Driven Prion Protein mRNA Translation in H4 Neuroglioblastoma Cells. [Related pubchem assays: 1829 (Project Summary), 1814 (Primary HTS)]. The settings on record: Homo sapiens.
Assay [10] in a line: Luminescence Cell-Based Dose Confirmation HTS to Identify Activators of 5'UTR Stem-Loop Driven Alpha-Synuclein mRNA Translation in H4 Neuroglioblastoma Cells. [Related pubchem assays: 1829 (Project Summary), 1814 (Primary HTS)].
For a further assay, the system named is SN12K1. Put plainly: cells. The settings on record: Homo sapiens.
The test system of another assay is P388. Put plainly: cells. The settings on record: Mus musculus.
The next assay relates to P388/ADR. Put plainly: cells. The settings on record: Mus musculus.
The nature of assay [11]: viability of uninfected HEp-2 cells – cell-based, HTS, cytotoxicity control for RSV inhibitor project, dose response (AID 2410). The settings on record: human respiratory syncytial virus.
Assay [12] has as its target T4, Heat shock factor protein 1 (Mus musculus, UniProt P38532).
T4 sequence (P38532 whole entry): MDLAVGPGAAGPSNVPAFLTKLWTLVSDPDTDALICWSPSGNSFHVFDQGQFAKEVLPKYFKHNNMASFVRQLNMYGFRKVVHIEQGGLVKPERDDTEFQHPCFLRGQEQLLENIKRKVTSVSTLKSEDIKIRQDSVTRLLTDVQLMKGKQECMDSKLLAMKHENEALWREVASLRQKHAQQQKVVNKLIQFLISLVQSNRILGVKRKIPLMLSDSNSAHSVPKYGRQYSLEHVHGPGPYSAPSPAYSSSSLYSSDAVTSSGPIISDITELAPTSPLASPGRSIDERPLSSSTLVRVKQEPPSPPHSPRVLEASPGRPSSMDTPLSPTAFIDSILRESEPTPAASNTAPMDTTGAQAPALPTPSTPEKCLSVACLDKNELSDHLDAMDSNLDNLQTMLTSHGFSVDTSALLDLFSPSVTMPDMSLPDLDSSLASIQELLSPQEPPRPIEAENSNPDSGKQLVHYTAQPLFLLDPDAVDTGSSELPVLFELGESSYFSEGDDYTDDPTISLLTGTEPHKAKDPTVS
Put plainly: decrease of HSF1-responsive luciferase luminescence – cell-based, NIH3T3, dose retest, confirmation (AID 2382).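 Also: NIH3T3 fibroblasts with HSF1-driven luciferase reporter stressed by proteasome inhibitor MG132; luminescence from HSF1-driven luciferase expression after 8 hours of MG132 stress.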

The record followed here is ChEMBL document CHEMBL1201862, “PubChem BioAssay data set” (2004).

Active and inactive are the calls of the source.

Voltage-dependent T-type calcium channel subunit alpha-1H, sequence (O95180 whole entry): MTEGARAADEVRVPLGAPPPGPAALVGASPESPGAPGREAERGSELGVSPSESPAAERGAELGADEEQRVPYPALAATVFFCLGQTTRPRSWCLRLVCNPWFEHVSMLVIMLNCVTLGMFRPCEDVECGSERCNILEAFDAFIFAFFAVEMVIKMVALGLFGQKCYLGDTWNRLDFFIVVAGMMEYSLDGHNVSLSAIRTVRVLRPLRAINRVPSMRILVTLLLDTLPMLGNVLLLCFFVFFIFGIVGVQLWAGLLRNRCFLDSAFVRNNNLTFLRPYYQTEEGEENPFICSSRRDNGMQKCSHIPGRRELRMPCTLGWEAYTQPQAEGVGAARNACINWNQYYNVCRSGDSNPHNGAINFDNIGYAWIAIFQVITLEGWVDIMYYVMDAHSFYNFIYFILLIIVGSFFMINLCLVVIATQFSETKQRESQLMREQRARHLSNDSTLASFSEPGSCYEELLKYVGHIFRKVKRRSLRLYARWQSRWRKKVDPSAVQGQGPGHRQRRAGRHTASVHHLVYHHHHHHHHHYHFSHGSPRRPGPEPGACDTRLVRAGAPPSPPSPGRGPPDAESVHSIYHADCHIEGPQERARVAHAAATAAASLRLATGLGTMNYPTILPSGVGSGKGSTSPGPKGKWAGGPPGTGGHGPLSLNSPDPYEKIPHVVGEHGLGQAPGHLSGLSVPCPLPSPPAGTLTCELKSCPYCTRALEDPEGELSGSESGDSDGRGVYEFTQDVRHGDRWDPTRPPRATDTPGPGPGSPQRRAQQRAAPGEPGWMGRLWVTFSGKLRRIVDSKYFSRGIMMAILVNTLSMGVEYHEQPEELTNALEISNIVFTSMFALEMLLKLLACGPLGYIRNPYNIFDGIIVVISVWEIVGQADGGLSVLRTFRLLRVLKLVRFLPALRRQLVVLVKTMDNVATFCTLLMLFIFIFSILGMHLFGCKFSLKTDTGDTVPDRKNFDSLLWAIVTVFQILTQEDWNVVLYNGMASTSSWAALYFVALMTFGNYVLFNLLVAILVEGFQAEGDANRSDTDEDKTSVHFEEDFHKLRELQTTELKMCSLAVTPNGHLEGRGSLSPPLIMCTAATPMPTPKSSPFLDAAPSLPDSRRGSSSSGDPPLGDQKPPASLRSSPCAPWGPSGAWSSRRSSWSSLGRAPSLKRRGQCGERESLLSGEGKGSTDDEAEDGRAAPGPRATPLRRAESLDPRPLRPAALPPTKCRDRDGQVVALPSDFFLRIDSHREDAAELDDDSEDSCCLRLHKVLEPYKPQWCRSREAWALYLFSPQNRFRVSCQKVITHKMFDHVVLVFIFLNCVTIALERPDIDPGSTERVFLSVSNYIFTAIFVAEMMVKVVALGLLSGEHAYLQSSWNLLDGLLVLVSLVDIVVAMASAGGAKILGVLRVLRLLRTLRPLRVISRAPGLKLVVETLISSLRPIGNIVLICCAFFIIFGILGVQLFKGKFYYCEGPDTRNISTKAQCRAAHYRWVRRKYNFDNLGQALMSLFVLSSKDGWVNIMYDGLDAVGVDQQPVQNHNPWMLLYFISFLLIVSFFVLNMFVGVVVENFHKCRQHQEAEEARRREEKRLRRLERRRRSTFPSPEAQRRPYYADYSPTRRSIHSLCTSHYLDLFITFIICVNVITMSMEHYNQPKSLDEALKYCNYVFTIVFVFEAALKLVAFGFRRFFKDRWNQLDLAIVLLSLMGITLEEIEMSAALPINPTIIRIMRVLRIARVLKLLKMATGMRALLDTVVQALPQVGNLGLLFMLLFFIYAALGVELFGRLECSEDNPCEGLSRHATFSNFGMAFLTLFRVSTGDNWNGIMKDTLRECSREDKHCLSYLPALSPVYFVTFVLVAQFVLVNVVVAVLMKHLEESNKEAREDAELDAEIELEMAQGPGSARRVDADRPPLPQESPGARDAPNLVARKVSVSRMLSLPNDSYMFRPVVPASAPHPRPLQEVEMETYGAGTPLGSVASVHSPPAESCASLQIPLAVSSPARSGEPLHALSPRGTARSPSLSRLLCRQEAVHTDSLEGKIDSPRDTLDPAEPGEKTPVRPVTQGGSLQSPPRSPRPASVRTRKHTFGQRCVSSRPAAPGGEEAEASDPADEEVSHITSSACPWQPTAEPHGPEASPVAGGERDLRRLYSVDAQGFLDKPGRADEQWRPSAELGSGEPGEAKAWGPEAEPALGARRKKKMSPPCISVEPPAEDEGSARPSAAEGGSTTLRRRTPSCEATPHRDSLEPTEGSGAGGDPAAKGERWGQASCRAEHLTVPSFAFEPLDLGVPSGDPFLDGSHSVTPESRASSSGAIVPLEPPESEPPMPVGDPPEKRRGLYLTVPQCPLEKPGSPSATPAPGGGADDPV

Take `Nc1cc2c(cc1[N+](=O)[O-])OCO2`: in assay [1], the IC50 is 5.21 µM (active). `N=c1n(CCO)c2ccccc2n1Cc1ccc(Cl)cc1`: the EC50 in assay [2] is 3.35 µM (active). Broadly, the AC50 is the concentration giving half of the maximal activity seen. As to `C[C@@H]1CN([C@@H](C)CO)C(=O)Cc2cc(NC(=O)Nc3ccc(F)cc3)ccc2O[C@@H]1CN(C)Cc1ccc(Cl)c(Cl)c1`, the AC50 in assay [3] is 3.42 µM (active). As for `Cn1c(=O)c2cc3c(nc2n(C)c1=O)CC(c1ccccc1)CC3=O` (stereo not given), the IC50 at Fatty acid synthase [4] was 10.5 µM (active); in assay [5], > 47.1 µM (inactive); on Fatty acid synthase [7], 14.5 µM (active). The EC50 in assay [6] is > 53 µM (inactive). With `COc1ccc(N2CCN(C(=O)CCc3nc(-c4ccc(C)cc4)no3)CC2)cc1`, in assay [8], the EC50 is 2.1 µM (active). As for `N#C/C(=C(/O)c1ccc(-c2cccc([N+](=O)[O-])c2)o1)c1nc2ccccc2s1`, the IC50 in [1] is 5.38 µM (active). Further, the EC50 in [9] is 9.39 µM (active); in the assay with H4, > 120 µM (not active); in assay [10] it was > 120 µM (not active). As usually defined, the GI50 is the concentration at which growth is held to half of that of the control. For `CC[C@@]1(O)C(=O)OCc2c1cc1n(c2=O)Cc2cc3cc(O)ccc3nc2-1` [HYDROXYCAMPTOTHECIN], the values for the GI50 in the assay on SN12K1, with P388 and with P388/ADR were 0.01 µM (active), 0.0203 µM (active) and 0.0304 µM (active), respectively. Consider `CC1(CO)C(O)CCC2(C)C1C(O)CC1CC3CC12CCC3(O)CO` (stereo not given), for which the GI50 with SN12K1 was 209 µM (inactive); in the assay on P388, 11.2 µM (inactive); with P388/ADR, 187 µM (inactive). Consider `C[C@H](CO)N1C[C@H](C)[C@@H](CN(C)S(=O)(=O)c2ccc(Cl)cc2)Oc2c(NC(=O)c3nc4ccccc4s3)cccc2C1=O`, for which, in assay [3], the AC50 was 1.73 µM (active).

Regarding `Cc1cccc(OCC(=O)Nc2ccccc2N2CCN(C(=O)C(C)C)CC2)c1C`, the EC50 in [8] was 2.13 µM (active). As to `CCn1nccc1C(=O)Nc1cc(Cl)cc(Cl)c1`, the EC50 in assay [8] is 7.54 µM (active). On to `O=C(CSCc1cnn(-c2ccccc2)c1-n1cccc1)NCc1ccc2c(c1)OCO2`, for which the EC50 in [8] was 2.98 µM (active). The term CC50 denotes the concentration at which the toxic effect on the cells reaches its halfway point. With `Cc1cc(Nc2ccc(C)c(C)c2)c2ccccc2n1`, the CC50 in assay [11] is 26.1 µM (active). Moreover, the EC50 in assay [2] was 2.11 µM (active). Regarding `S=C(NCc1ccco1)N1CCN(Cc2ccc(Cl)cc2Cl)CC1`, the EC50 in assay [8] was 4.2 µM (active). In the case of `CC1=CC2=C(C=O)C(=O)[C@](C)(O)[C@@H](O)C2=CO1`, the GI50 was 30.4 µM (inactive) with SN12K1, 15 µM (inactive) in the assay on P388 and 14.5 µM (inactive) in the assay on P388/ADR. Take `Cc1ccc(S(=O)(=O)Nc2ccc3c(c2)CC(=O)N([C@@H](C)CO)C[C@H](C)[C@H](CN(C)Cc2ccc(C(=O)Nc4ccccc4N)cc2)O3)cc1`: in assay [3], the concentration at half-maximal activity (AC50) is 2.31 µM (active).

As for `COC1CC(C)C(OC)c2cc(O)cc(c2O)NC(=O)/C(C)=C/C=C\C(C)C(OC(N)=O)/C(C)=C\C(C)C1OC` (stereo not given), the GI50 is 0.0693 µM (active) in the assay with P388 and 1.55 µM (inactive) in the assay on P388/ADR.

Regarding `Cc1[nH]c2ccc(C(=O)OC(C)C(=O)N(C)c3ccccc3)cc2c1C` (stereo not given), in [2], the EC50 is 0.749 µM (active). With `O=C(CSc1nc2ccccc2[nH]1)Nc1ccc(F)c(F)c1`, the EC50 in assay [12] is > 195 µM (not active); in [8], 6.59 µM (active). Regarding `COc1cc(C(=O)N(CCc2ccccc2)C2=CC3CCC(C2)N3C)cc(OC)c1OC` (stereo not given), the EC50 in assay [2] is 0.335 µM (active). As for `COc1ccc(S(=O)(=O)Nc2ccc3c(c2)CC(=O)N([C@H](C)CO)C[C@@H](C)[C@@H](CN(C)S(=O)(=O)c2ccc(F)cc2)O3)cc1`, in [3], the AC50 was 2.24 µM (active). Consider `CCOCC(=O)N(C)c1cccc2c3c(n(C)c12)CCCCC3`, for which the GI50 with SN12K1, in the assay on P388 and in the assay with P388/ADR was > 100 µM (inactive) in each case. For the molecule `CCC(C)(C)n1nnnc1C(c1ccc(O)c(OC)c1)N1CCc2ccccc2C1` (stereo not given), the IC50 in assay [1] was 6.3 µM (active). With `O=C1C=C2SC3C[C@@]24CC1(O)[N+]1=c2c4c(c(O)c4c2=C(C=N4)CC1)N3`, the GI50 in the assay with SN12K1 is 1.29 µM (inactive); in the assay on P388, 0.869 µM (active); in the assay with P388/ADR, 1.3 µM (inactive). Take `COc1ccc(CNC(=O)CC2C[C@H](C(=O)N3CCOCC3)[C@@]3(CCC4CCCC4)c4[nH]c5ccccc5c4CCN3C2=O)cc1OC` (stereo not given in full): the IC50 at Fatty acid synthase [4] is 3.67 µM (active); on Fatty acid synthase [7], 4.73 µM (active).
